Values joined by “and” are separate entries in the source; they are usually repeats but may differ in a detail not shown here. Equal values may be shown once.
Legend:
prepubertal female dogs = assay: Delay of puberty onset in prepubertal female dogs (Example 14); type: in vivo, dog
Source text: The aim of this study was to evaluate the delay of puberty onset in prepubertal female dogs. As known the puberty begins with the setting up of several parameters: • Increasing number of receptors in central nervous system (CNS) and gonads • Desensitization of hypothalamus/pituitary towards estrogens • Ripening of the gonads and the secondary sexual organs • Follicle ripening, spermatogenesis

[1] = dog, in vivo
[2] = parameters: species or system cat; details: in vivo
Procedure: • study period: D0-560 (18 months)· • n=20 adults, sexually mature intact male cats • blinded, randomized • Suprelorin® group: n=16=>4.7 mg Suprelorin® SC, neck • Control group: n=4=>0.5 ml saline SC, neck
Blood samples were collected from 16 healthy, intact male cats that had received a deslorelin implant. Samples were analyzed using a validated liquid chromatography coupled to tandem mass spectrometry (LC-MS/MS) method after solid extraction using Oasis® WCX uElution plate. […] Concentrations measured below the lower limit of quantification (LLOQ) of 4 pg/mL were reported as BLQ (Below the Limit of Quantification).
Non-compartmental pharmacokinetic analysis of individual deslorelin concentrations in feline plasma was performed using Phoenix® software (WinNonlin 8.0, NLME 1.6, Certara L. P., Pharsight, St. Louis, MO, USA) to estimate the pharmacokinetic parameters of deslorelin.

male cats = assay: Cat field studies 1 and 2: suppression of fertility, reversibility, behaviour, safety (Example 12); type: in vivo
Source text: The efficacy and safety of the re-implantation was followed-up for these supplementary 12 months, i.e. for a total of 24 months.
The observation schedule was as follows: • Study 1: V1: Day −14 to −7; V2: Day 0; V3: 1.5 months±3 days; V4: 3 months±5 days, V5: 6 months±5 days, V6: 9 months±5 days; V7: 12 months #5 days; • Study 2: V8: 12 months±3 days; V9: 13.5 months±3 days; V10: 15 months±5 days; V11: 18 months±5 days; V12: 21 months±5 days; V13: 24 months±5 days.
Regarding the enrolment criteria, in both studies the criteria were as the following: • Domestic Cats • Age >3 MONTHS old or >15 MONTHS in Study 2 • Intact Indoor males • Client-owned (including shelter cats/rehomed by foster families)
In these studies the following primary endpoints were measured: • For Study 1: the suppression of fertility (Testosterone≤0.10 ng/ml* from V4 until V7*-3 to 12 months) • Study 2: the suppression of fertility (Testosterone≤0.10 ng/mL*from V8 until V13 (12 to 24 months) and the time to reversion effect. […]

cat = assay: Safety study in cat, high dose; type: in vivo
testosterone = assay: Correlation between deslorelin and testosterone concentration (Example 4); type: in vivo, cat; details: 16 male cats, 4.7 mg implant; assessed graphically
Procedure: The serum concentration of testosterone was measured according to the protocol detailed in example 2, point 2.1.
The plasmatic concentration of deslorelin was measured according to the protocol detailed in example 1, point 1.1.

in vivo [3] = details: male, dog, 4.7 mg
in vivo [4] = type: in vivo, dog; details: male, dog, in vivo, 4.7 mg
testosterone, LH and FSH = assay: in vivo; type: in vivo, dog; details: assessed graphically
prepubertal bitches = details: cited from earlier work
male dogs = details: cited from earlier work
intact male cats [5] = assay: Testicular size by calipers (Example 7); type: in vivo, cat; details: treated cats
[6] = in vivo
Procedure: Samples were collected from 10 intact male cats treated with Suprelorin® 4.7 implant. Samples (based on a plasma volume of 150 μL, treated with K2-EDTA as anticoagulant) were analyzed by a LC-MS/MS method after a solid extraction phase using μElution Oasis® WCX plates. The compound (13C, 15N)-Leu (7)-deslorelin was used as a standard. The calibration range was 4 pg/mL-2000 pg/mL.

intact male cats [7] = assay: PK/PD preclinical study in 15-week-old male cats: penile spines, behaviour, puberty, reversal (Example 13); type: in vivo, cat; details: treated at 15 weeks of age
Source text: On D14, the three spare cats were removed from the study. Five+3 female cats (Group 3), pubescent at study start, were included in the study solely to assess the reproductive behavior of male cats. They were not treated with the implant. • Duration: 18 Study Months post-injection (PI) (D502/Week 72, i.e., 16.5 calendar months)

Compound: CCNC(=O)[C@@H]1CCCN1C(=O)[C@H](CCCN=C(N)N)NC(=O)[C@H](CC(C)C)NC(=O)[C@@H](Cc1c[nH]c2ccccc12)NC(=O)[C@H](Cc1ccc(O)cc1)NC(=O)[C@H](CO)NC(=O)[C@H](Cc1c[nH]c2ccccc12)NC(=O)[C@H](Cc1cnc[nH]1)NC(=O)[C@@H]1CCC(=O)N1 [deslorelin]
- Findings in prepubertal female dogs (prepubertal female dogs; with 1 implant): no disturbance of body development, the vulva size was normal, but delayed epiphyseal closure
- Findings in prepubertal female dogs (prepubertal female dogs; with 3 implants every 4.5 Mo): vulva stayed juvenile and the effect was comparable to prepubertal castration
- Study day until which plasma deslorelin was quantifiable [1]: 441
- Time deslorelin remains present in the blood [2]: up to 560 days
- Duration of effective chemical castration (male cats; male cats): at least 12 months
- Onset of efficacy in behavioral reduction (male cats; sexual behaviors): 7 to 31 days
- Safety findings (cat): neither serious adverse events nor live threatening events
- Deslorelin concentration below which testosterone started to increase (testosterone): < 12 pg/mL
- level at 10584 h (in vivo [3]): 2 pg/mL
- level at 5376 h (in vivo [4]): 12 ± 10.4 pg/mL
- Deslorelin concentration below which testosterone/LH/FSH concentrations started to increase (testosterone, LH and FSH): 12 pg/mL and < 12 pg/mL
- Delay of puberty (prepubertal bitches; prepubertal bitch): at least 4.5 months
- Progesterone (P4), mean (prepubertal bitches; prepubertal bitches): 0.6 ± 0.2 ng/mL
- Presence of deslorelin (male dogs; dog, in vivo): 2.5 months
- Duration of observed effect (male dogs; dogs): at least 6 months
- Persistent pharmacological effect by plasma testosterone (male dogs; following administration): at least 12 months
- Effect on testicular volume (intact male cats [5]): induced a decrease in testicular volume
- Time deslorelin remains in the blood [6]: up to 497 days
- Duration of delay of puberty onset (intact male cats [7]): at least 1 year
